Experimental data: ChEMBL document CHEMBL1158219, “Cell-based screen for identification of inhibitors of tubulin polymerization” (J Nat Prod, 1996)
Active and inactive are the calls of the source. No cut-off for these calls is given here. *1 amine or outer side, *2 acyl side, *3 side chain or, on linkers, in order; H or OH if unused. Where a SMILES comes first, the peptide text is derived from it. Bridges are numbered along the chain shown (N, C = ends). Roman numbers before positions name the chains, in order. [ ]: non-standard residue; d: D form. Actinocin(9to1) = Cc1c2oc3c(C)ccc(C(=O)[*:1])c3nc-2c(C(=O)[*:2])c(N)c1=O; NMeV = CN[C@H](C(=O)O)C(C)C; Sar = CNCC(=O)O

Key:
C6 [1] = test: Cytotoxicity against rat C6 cells at 50 ug/mL to 2.5 mg/mL after 3 days treated 4 hrs before db-cAMP challenge by MTT assay; format: functional, cell-based
C6 [2] = test: Inhibition of tubulin polymerization in rat C6 cells at 50 ug/mL to 2.5 mg/mL after 4 hrs; format: cell-based
C6 [3] = test: Cytotoxicity against rat C6 cells assessed as cell release at 50 ug/mL to 2.5 mg/mL after 5 hrs by MTT assay in absence of db-cAMP; format: functional, cell-based
C6 [4] = test: Cytotoxicity against rat C6 cells after 3 days treated 4 hrs before db-cAMP challenge by MTT assay; format: functional; conditions: read-out: LC50 (the source's name)
[5] = Inhibition of tubulin polymerization in rat C6 cells after 4 hrs; format: cell-based

For COc1cccc2c1C(=O)c1c(O)c3c(c(O)c1C2=O)C[C@@](O)(C(C)=O)C[C@@H]3O[C@H]1C[C@H](N)[C@H](O)[C@H](C)O1, the Activity (C6 [1]) was “inactive”, the Activity (C6 [2]) was “inactive” and the Activity (C6 [3]) was “inactive”.
In the case of COc1cc2c(c(OC)c1OC)-c1ccc(OC)c(=O)cc1[C@@H](NC(C)=O)CC2 [COLCHICINE], the CC50 (C6 [4]) is reported as 200 nM, the EC50 [5] is reported as 0.1 µM and the Activity (C6 [3]) is reported as “inactive”.
In the case of C=C1[C@@H](C)[C@H]2[C@H](Cc3ccccc3)NC(=O)[C@]23OC(=O)/C=C/[C@H](O)CCC[C@@H](C)C/C=C/[C@H]3[C@@H]1O, the Activity (C6 [1]) is reported as “inactive”, the Activity (C6 [2]) is reported as “inactive” and the Activity (C6 [3]) is reported as “inactive”.
For COc1cccc2c1C(=O)c1c(O)c3c(c(O)c1C2=O)C[C@@](O)(C(=O)CO)C[C@@H]3O[C@H]1C[C@H](N)[C@H](O)[C@H](C)O1, the Activity (C6 [1]) was “inactive”, the Activity (C6 [2]) was “inactive” and the Activity (C6 [3]) was “inactive”.
With C[C@@H]1C[C@@H]([C@H](O)CC2CC(=O)NC(=O)C2)C(=O)[C@@H](C)C1 the Activity (C6 [1]) was “inactive”, the Activity (C6 [2]) was “inactive” and the Activity (C6 [3]) was “inactive”.
For CN(N=O)C(=O)N[C@@H](C=O)[C@@H](O)[C@H](O)[C@H](O)CO, the Activity (C6 [1]) was “inactive”, the Activity (C6 [2]) was “inactive” and the Activity (C6 [3]) was “inactive”.
In the case of COc1cc([C@@H]2c3cc4c(cc3[C@@H](O[C@@H]3O[C@@H]5CO[C@@H](C)O[C@H]5[C@H](O)[C@H]3O)[C@H]3COC(=O)[C@H]23)OCO4)cc(OC)c1O [ETOPOSIDE], the CC50 (C6 [4]) is reported as 120 nM, the EC50 [5] is reported as 680 µM and the Activity (C6 [3]) is reported as “inactive”.
In the case of CO[C@@]12[C@H](COC(N)=O)C3=C(C(=O)C(C)=C(N)C3=O)N1C[C@@H]1N[C@@H]12, the Activity (C6 [1]) is reported as “inactive”, the Activity (C6 [2]) is reported as “inactive” and the Activity (C6 [3]) is reported as “inactive”.
With COc1cc([C@@H]2c3cc4c(cc3[C@@H](O[C@@H]3O[C@@H]5CO[C@@H](c6cccs6)O[C@H]5[C@H](O)[C@H]3O)[C@H]3COC(=O)[C@H]23)OCO4)cc(OC)c1O the Activity (C6 [1]) was “inactive”, the Activity (C6 [2]) was “inactive” and the Activity (C6 [3]) was “inactive”.
Molecule CC(=O)O[C@H]1C(=O)[C@@]2(C)[C@H]([C@H](OC(=O)c3ccccc3)[C@]3(O)C[C@H](OC(=O)[C@H](O)[C@@H](NC(=O)c4ccccc4)c4ccccc4)C(C)=C1C3(C)C)[C@]1(OC(C)=O)CO[C@@H]1C[C@@H]2O [PACLITAXEL] has a CC50 (C6 [4]) of 23 nM.
With C=CC[C@@H](CC/C(C)=C/C=C/CC/C=C\[C@@H]1CSC([C@@H]2C[C@@H]2C)=N1)OC [CURACIN A] the CC50 (C6 [4]) was 11 nM, the EC50 [5] was 0.51 µM and the Activity (C6 [3]) was “inactive”.
With CCn1cc(C(=O)O)c(=O)c2ccc(C)nc21 the Activity (C6 [1]) was “inactive”, the Activity (C6 [2]) was “inactive” and the Activity (C6 [3]) was “inactive”.
For CC[C@]1(O)C[C@@H]2CN(CCc3c([nH]c4ccccc34)[C@@](C(=O)OC)(c3cc4c(cc3OC)N(C)[C@H]3[C@@](O)(C(=O)OC)[C@H](OC(C)=O)[C@]5(CC)C=CCN6CC[C@]43[C@@H]65)C2)C1 [VINBLASTINE], the CC50 (C6 [4]) was 66 nM, the EC50 [5] was 8.2 µM and the Activity (C6 [3]) was “inactive”.
With N[C@@H](Cc1ccc(N(CCCl)CCCl)cc1)C(=O)O the Activity (C6 [1]) was “inactive”, the Activity (C6 [2]) was “inactive” and the Activity (C6 [3]) was “inactive”.
With Clc1ccc(C(c2ccccc2Cl)C(Cl)Cl)cc1 (stereo not drawn) the Activity (C6 [1]) was “inactive”, the Activity (C6 [2]) was “inactive” and the Activity (C6 [3]) was “inactive”.
With CC[C@]1(O)C[C@H]2CN(CCc3c([nH]c4ccccc34)[C@@](C(=O)OC)(c3cc4c(cc3OC)N(C=O)[C@H]3[C@@](O)(C(=O)OC)[C@H](OC(C)=O)[C@]5(CC)C=CCN6CC[C@]43[C@@H]65)C2)C1 [VINCRISTINE] the CC50 (C6 [4]) was 320 nM, the EC50 [5] was 6.2 µM and the Activity (C6 [3]) was “inactive”.
In the case of O=C1c2c(O)ccc(O)c2C(=O)c2c(NCCNCCO)ccc(NCCNCCO)c21, the Activity (C6 [1]) is reported as “inactive”, the Activity (C6 [2]) is reported as “inactive” and the Activity (C6 [3]) is reported as “inactive”.
For CO[C@@H]1[C@@H](OC(N)=O)[C@@H](O)[C@H](Oc2ccc3c(O)c(NC(=O)c4ccc(O)c(CC=C(C)C)c4)c(=O)oc3c2C)OC1(C)C, the Activity (C6 [1]) was “inactive”, the Activity (C6 [2]) was “inactive” and the Activity (C6 [3]) was “inactive”.
For Cc1c2oc3c(C)ccc(C(=O)N[C@@H]4C(=O)N[C@H](C(C)C)C(=O)N5CCC[C@H]5C(=O)N(C)CC(=O)N(C)[C@@H](C(C)C)C(=O)O[C@@H]4C)c3nc-2c(C(=O)N[C@@H]2C(=O)N[C@H](C(C)C)C(=O)N3CCC[C@H]3C(=O)N(C)CC(=O)N(C)[C@@H](C(C)C)C(=O)O[C@@H]2C)c(N)c1=O (I: T[dV]P[Sar][NMeV] / II: T[dV]P[Sar][NMeV]; ester I:1-I:C, II:1-II:C; linker I:N-II:N via Actinocin(9to1)), the Activity (C6 [1]) was “inactive”, the Activity (C6 [2]) was “inactive” and the Activity (C6 [3]) was “inactive”.
With O=NN(CCCl)C(=O)NCCCl the Activity (C6 [1]) was “inactive”, the Activity (C6 [2]) was “inactive” and the Activity (C6 [3]) was “inactive”.
